Patent US20230293526A1, “METHOD FOR TREATING CANCER WITH A REVERSE TRANSCRIPTASE INHIBITOR” (PrimeFour Therapeutics, Inc., priority 2020, published 2023)

Test system: cancer cell lines
Assay: Cancer cell proliferation activity of representative nucleosides, CellTiterGlo 72 h (Example 7, Tables 8 and 9)
Type: cell-based
Procedure: Dose response relationships on cell proliferation was assessed for representative nucleosides on cancer cell lines. Briefly, compound treatment of cells started one day after seeding with a final DMSO concentration of 0.1%, and was performed by nanodrop-dispensing using a Tecan Dispenser. 0.1% DMSO (solvent) and Staurosporine (10 μM) served as high control (100% viability) and low control (0% viability), respectively. Cells were cultured in the appropriate media. For the assays, cells were seeded in white cell culture-treated flat and clear bottom multiwell plates and incubated at 37° C. overnight before compound was added. After incubation for 72 h at 37° C. at 5% or 10% CO2 dependent on the medium, cell plates were equilibrated to room temperature for one hour, CellTiterGlo reagent (Promega) was added and luminescence was measured approximately an hour later using a luminometer.
Raw data were converted into percent cell viability relative to the high and low control, which were set to 100% and 0%, respectively.

IC50 (72 h, 5637, 72 h (Table 9)): 450 nM
IC50 (72 h, CLS439, 72 h (Table 9)): 2270 nM
IC50 (72 h, HS729, 72 h (Table 9)): 580 nM
IC50 (72 h, J82, 72 h (Table 9)): 760 nM
IC50 (72 h, JAR, 72 h (Table 9)): > 50000 nM
IC50 (72 h, MT3, 72 h (Table 9)): 80 nM
IC50 (72 h, PC3, 72 h (Table 9)): 180 nM
IC50 (72 h, RD, 72 h (Table 9)): 1030 nM
IC50 (72 h, T24, 72 h (Table 9)): 290 nM
IC50 (Homo sapiens, 22Rv1, 72 h, 22RV1, 72 h (Table 9)): 1330 nM
IC50 (Homo sapiens, 786-0, 72 h, 786O, 72 h (Table 9)): 1070 nM
IC50 (Homo sapiens, A204, 72 h, A204, 72 h (Table 9)): 20 nM
IC50 (Homo sapiens, A549, 72 h, A549, 72 h (Table 9)): 440 nM
IC50 (Homo sapiens, A673, 72 h, A673, 72 h (Table 9)): 1740 nM
IC50 (Homo sapiens, A2780, 72 h, A2780, 72 h (Table 9)): 720 nM
IC50 (Homo sapiens, A-375, 72 h, A375, 72 h (Table 9)): 710 nM
IC50 (Homo sapiens, A-431, 72 h, A431, 72 h (Table 9)): 470 nM
IC50 (Homo sapiens, ACHN, 72 h, 72 h (Table 9)): 390 nM
IC50 (Homo sapiens, ASPC1, 72 h, ASPC1, 72 h (Table 9)): 580 nM
IC50 (Homo sapiens, BT-20, 72 h, BT20, 72 h (Table 9)): 580 nM
IC50 (Homo sapiens, BXPC-3, 72 h, BXPC3, 72 h (Table 9)): 540 nM
IC50 (Homo sapiens, C-33-A, 72 h, C33A, 72 h (Table 9)): 240 nM
IC50 (Homo sapiens, CAKI-1, 72 h, CAKI1, 72 h (Table 9)): 110 nM
IC50 (Homo sapiens, COLO 205, 72 h, COLO205, 72 h (Table 9)): 210 nM
IC50 (Homo sapiens, COLO-678, 72 h, COLO678, 72 h (Table 9)): 3760 nM
IC50 (Homo sapiens, Ca-Ski, 72 h, CASKI, 72 h (Table 9)): 3960 nM
IC50 (Homo sapiens, Caco-2, 72 h, CACO2, 72 h (Table 9)): > 50000 nM
IC50 (Homo sapiens, Calu-6, 72 h, CALU6, 72 h (Table 9)): 720 nM
IC50 (Homo sapiens, DLD-1, 72 h, DLD1, 72 h (Table 9)): 2650 nM
IC50 (Homo sapiens, DU-145, 72 h, DU145, 72 h (Table 9)): 310 nM
IC50 (Homo sapiens, EFO-21, 72 h, EFO21, 72 h (Table 9)): 790 nM
IC50 (Homo sapiens, EJ-28, 72 h, EJ28, 72 h (Table 9)): 1530 nM
IC50 (Homo sapiens, Granta-519, 72 h, GRANTA-519, 72 h (Table 9)): 70 nM
IC50 (Homo sapiens, HCT-15, 72 h, HCT15, 72 h (Table 9)): 460 nM
IC50 (Homo sapiens, HCT-116, 72 h, HCT116, 72 h (Table 9)): 470 nM
IC50 (Homo sapiens, HEK293, 72 h, HEK293, 72 h (Table 9)): > 50000 nM
IC50 (Homo sapiens, HL-60, 72 h, HL-60, 72 h (Table 9)): 1010 nM
IC50 (Homo sapiens, HT-29, 72 h, HT29, 72 h (Table 9)): 1270 nM
IC50 (Homo sapiens, HT-1080, 72 h, HT1080, 72 h (Table 9)): 380 nM
IC50 (Homo sapiens, HeLa, 72 h, 72 h (Table 9)): 1000 nM
IC50 (Homo sapiens, HepG2, 72 h, HEPG2, 72 h (Table 9)): 1000 nM
IC50 (Homo sapiens, Hs-578T, 72 h, HS578T, 72 h (Table 9)): 970 nM
IC50 (Homo sapiens, IGROV-1, 72 h, IGROV1, 72 h (Table 9)): 510 nM
IC50 (Homo sapiens, IMR-90, 72 h, IMR90, 72 h (Table 9)): 1580 nM
IC50 (Homo sapiens, JEG-3, 72 h, JEG3, 72 h (Table 9)): 3340 nM
IC50 (Homo sapiens, JIMT-1, 72 h, JIMT1, 72 h (Table 9)): 190 nM
IC50 (Homo sapiens, K562, 72 h, K-562, 72 h (Table 9)): 4450 nM
IC50 (Homo sapiens, Kasumi 1, 72 h, KASUMI-1, 72 h (Table 9)): 270 nM
IC50 (Homo sapiens, L-363, 72 h, L-363, 72 h (Table 9)): > 50000 nM
IC50 (Homo sapiens, LoVo, 72 h, 72 h (Table 9)): 290 nM
IC50 (Homo sapiens, MCF7, 72 h, MCF7, 72 h (Table 9)): 3170 nM
IC50 (Homo sapiens, MDA-MB-231, 72 h, MDAMB231, 72 h (Table 9)): 100 nM
IC50 (Homo sapiens, MDA-MB-435, 72 h, MDAMB435, 72 h (Table 9)): 1300 nM
IC50 (Homo sapiens, MDA-MB-436, 72 h, MDAMB436, 72 h (Table 9)): 950 nM
IC50 (Homo sapiens, MDA-MB-468, 72 h, MDAMB468, 72 h (Table 9)): 3110 nM
IC50 (Homo sapiens, MG-63, 72 h, MG63, 72 h (Table 9)): 480 nM
IC50 (Homo sapiens, MHH-ES-1, 72 h, MHHES1, 72 h (Table 9)): 1660 nM
IC50 (Homo sapiens, MIA PaCa-2, 72 h, MIAPACA2, 72 h (Table 9)): 1150 nM
IC50 (Homo sapiens, MINO, 72 h, 72 h (Table 9)): 60 nM
IC50 (Homo sapiens, MV4-11, 72 h, MV4-11, 72 h (Table 9)): 840 nM
IC50 (Homo sapiens, NCI-H23, 72 h, NCI-H23, 72 h (Table 9)): 720 nM
IC50 (Homo sapiens, NCI-H82, 72 h, NCIH82, 72 h (Table 9)): 1150 nM
IC50 (Homo sapiens, NCI-H292, 72 h, NCIH292, 72 h (Table 9)): 920 nM
IC50 (Homo sapiens, NCI-H460, 72 h, NCIH460, 72 h (Table 9)): 770 nM
IC50 (Homo sapiens, OVCAR-3, 72 h, OVCAR3, 72 h (Table 9)): 640 nM
IC50 (Homo sapiens, OVCAR-4, 72 h, OVCAR4, 72 h (Table 9)): 8050 nM
IC50 (Homo sapiens, PANC-1, 72 h, PANC1, 72 h (Table 9)): 620 nM
IC50 (Homo sapiens, PLC-PRF-5, 72 h, PLCPRF5, 72 h (Table 9)): > 50000 nM
IC50 (Homo sapiens, Panc1005, 72 h, PANC1005, 72 h (Table 9)): > 50000 nM
IC50 (Homo sapiens, Ramos, 72 h, 72 h (Table 9)): 240 nM
IC50 (Homo sapiens, SAOS-2, 72 h, SAOS2, 72 h (Table 9)): 110 nM
IC50 (Homo sapiens, SF-268, 72 h, SF268, 72 h (Table 9)): 260 nM
IC50 (Homo sapiens, SF-295, 72 h, SF295, 72 h (Table 9)): 3250 nM
IC50 (Homo sapiens, SK-BR-3, 72 h, SKBR3, 72 h (Table 9)): 260 nM
IC50 (Homo sapiens, SK-HEP1, 72 h, SKHEP1, 72 h (Table 9)): 320 nM
IC50 (Homo sapiens, SK-LMS-1, 72 h, SKLMS1, 72 h (Table 9)): 860 nM
IC50 (Homo sapiens, SK-MEL-5, 72 h, SKMEL5, 72 h (Table 9)): 6180 nM
IC50 (Homo sapiens, SK-MEL-28, 72 h, SKMEL28, 72 h (Table 9)): 1320 nM
IC50 (Homo sapiens, SK-N-AS, 72 h, SKNAS, 72 h (Table 9)): 1220 nM
IC50 (Homo sapiens, SK-N-SH, 72 h, SKNSH, 72 h (Table 9)): > 50000 nM
IC50 (Homo sapiens, SK-OV-3, 72 h, SKOV3, 72 h (Table 9)): 1460 nM
IC50 (Homo sapiens, SNB-75, 72 h, SNB75, 72 h (Table 9)): 550 nM
IC50 (Homo sapiens, SU-DHL10, 72 h, SU-DHL-10, 72 h (Table 9)): 560 nM
IC50 (Homo sapiens, SU-DHL-6, 72 h, SU-DHL-6, 72 h (Table 9)): 310 nM
IC50 (Homo sapiens, SW-620, 72 h, SW620, 72 h (Table 9)): 1140 nM
IC50 (Homo sapiens, TE-671, 72 h, TE671, 72 h (Table 9)): 1020 nM
IC50 (Homo sapiens, THP-1, 72 h, THP-1, 72 h (Table 9)): 650 nM
IC50 (Homo sapiens, U2OS, 72 h, 72 h (Table 9)): 2450 nM
IC50 (Homo sapiens, U-87 MG, 72 h, U87MG, 72 h (Table 9)): 400 nM
IC50 (Homo sapiens, UMUC3, 72 h, UMUC3, 72 h (Table 9)): 1210 nM
IC50 (Homo sapiens, UO-31, 72 h, UO31, 72 h (Table 9)): 550 nM
IC50 (Homo sapiens, WSU-NHL, 72 h, 72 h (Table 9)): 150 nM
IC50 (NCI-H358M, 72 h, NCIH358M, 72 h (Table 9)): 120 nM
IC50 (PBMC, 72 h, 72 h (Table 9)): 710 nM
IC50 (RD-ES, 72 h, RDES, 72 h (Table 9)): 1900 nM
Compound: Nc1ccn([C@H]2C[C@H](O)[C@](CO)(CF)O2)c(=O)n1 [compound 32]
